For assay [1] the following is noted: J. of Antibiotics, vol. 27 p. 775 (1974); Canada Pat. No. 1,078,736; cited from earlier work.
For the next assay, the system named is solid Ehrlich carcinoma. Briefly: Antitumor effect on solid Ehrlich carcinoma. It counts as in vivo, mouse (ICR/Jcl). The conditions noted are these: Days 1,5,9, tumors weighed day 15. The procedure: The antitumor activities of the compounds of the present invention were estimated according to the method described in "Cancer Research" vol. 43, p. 5851 (1983).
ICR/Jcl male mice, 5 weks old, […], […]. Each test group was composed of 6 mice. Three million cells of Ehrlich carcinoma were injected in the hind leg. The drug was administered orally at days 1, 5, and 9. After sacrificing the mice at day 15, tumors were removed and weighed. The tumor growth inhibitory ratio was calculated according to the following formula. [formula]

Assay [2] deals with HL-60 (promyelocytic leukemia). In words: In vitro growth inhibition assay, HL-60. The assay is classed as cell-based. The conditions noted are these: Homo sapiens; HL-60, suspension culture, 72 hr. How it is done:
(§1) In vitro growth inhibition activities were determined according to the method described in "Cancer Research", Vol. 43, p. 5851-5856 (1983).
(§2) In the case of suspension culture (lymphoma and leukemia cell lines), cells were cultured with various concentrations of the compound for 72 hr.
(§3) Cell numbers were counted with a Coulter Counter and IC50 s were calculated.

In assay [3] the test system is CCRF-HSB-2 (acute lymphoblastic leukemia). In words: In vitro growth inhibition assay, CCRF-HSB-2. The conditions noted are these: Homo sapiens; CCRF-HSB-2, suspension culture, 72 hr. The assay is classed as cell-based. The procedure:
as §1, §2, §3

The test system of a further assay is P3HR1 (Burkitt lymphoma). Briefly: In vitro growth inhibition assay, P3HR1. The assay is classed as cell-based. The conditions noted are these: Homo sapiens, P3HR-1; P3HR1, suspension culture, 72 hr. How it is done: as §1, §2, §3
The subject of assay [4] is QG-56 (lung squamous carcinoma). Briefly: In vitro growth inhibition assay, QG-56. It counts as cell-based. The conditions noted are these: Homo sapiens; QG-56, monolayer culture, 72 to 120 hr. The procedure: as §1
(§4) In the case of monolayer culture (solid tumor cell lines), cells were cultured for 24 hr without the compound in order to allow cells to attach on the culture plate. Then the culture medium was changed to a fresh medium containing various concentrations of the compound. Cells were further cultured for 72 hr to 120 hr, and then removed from the culture plate by 0.125% trypsin and 0.05% EDTA solution.
as §3

The subject of assay [5] is QG-90 (lung small cell carcinoma). Briefly: In vitro growth inhibition assay, QG-90. It counts as cell-based. The conditions noted are these: Homo sapiens; QG-90, monolayer culture, 72 to 120 hr. The procedure: as §1, §4, §3
The test system of a further assay is A549 (lung cancer). Briefly: In vitro growth inhibition assay, A549. The assay is classed as cell-based. The conditions noted are these: Homo sapiens; A549, monolayer culture, 72 to 120 hr. The procedure:
as §1, §4, §3

For assay [6], the system named is Hela (uterine cervix cancer). In words: In vitro growth inhibition assay, Hela. It counts as cell-based. The conditions noted are these: Homo sapiens, monolayer culture, 72 to 120 hr. The procedure: as §1, §4, §3
In assay [7] the test system is KU-2 (renal cell carcinoma). Briefly: In vitro growth inhibition assay, KU-2. It counts as cell-based. The conditions noted are these: Homo sapiens; KU-2, monolayer culture, 72 to 120 hr. How it is done: as §1, §4, §3
The next assay has as its system DU 145 (prostate cancer). Briefly: In vitro growth inhibition assay, DU 145. The conditions noted are these: Homo sapiens; DU 145, monolayer culture, 72 to 120 hr. It counts as cell-based. How it is done:
as §1, §4, §3

Assay [8] relates to SCaBER (bladder squamous carcinoma). Briefly: In vitro growth inhibition assay, SCaBER. It counts as cell-based. The conditions noted are these: Homo sapiens, monolayer culture, 72 to 120 hr. How it is done: as §1, §4, §3
For assay [9], the system named is various types of human tumor cell lines. Briefly: In vitro growth inhibition on various human tumor cell lines (summary). The assay is classed as cell-based. The procedure:
as §1, §2, §4, §3

For a further assay, the system named is anti-SRBC PFC response. In words: Immunosuppressive activity: anti-SRBC PFC response in vivo (Cunningham method). Also on record: species or system mouse. The conditions noted are these: for Suppression / PFC × 10^-3 / spleen: day 0 to 3; for Suppression: PFC measured day 4; for PFC × 10^-3 / spleen: measured day 4, AV. ± SD., n = 4, control 363 ± 51. The procedure:
The immunosuppressive activity of the compound of the present invention was assayed in comparison with mizoribine which has been used in immunosuppressive therapy. After a sheep red blood cell preparation (SRBC) was injected in mice, the compounds were administered orally once a day on day 0 to 3 and the plaque forming cell (PFC) number was measured on day 4 by Cunningham method. [Cunningham A. J. et al. Immunol. 14, 599(1968)].

In general, IC50 refers to the concentration that gives 50% inhibition.

Consider `NC(=O)c1nc[nH]c1O` [4-carbamoylimidazolium-5-olate], for which the “immunosuppressive and antitumor activities, in words” value in assay [1] is “immunosuppressive and antitumor activities”.

Consider `N#Cc1ncn([C@@H]2O[C@H](CO)[C@@H](O)[C@H]2O)c1O` [4-cyano-1-β-D-ribofuranosylimidazolium-5-olate], for which the “Inhibition ratio (tumor growth)” value with solid Ehrlich carcinoma (10 mg/kg/day po) came to 40.1%; in the assay on solid Ehrlich carcinoma (20 mg/kg/day po), 73.6%; in the assay with solid Ehrlich carcinoma (40 mg/kg/day po) it was 99.8%; with solid Ehrlich carcinoma (80 mg/kg/day po), 99.8%. In addition, the half-maximal inhibitory concentration (IC50) in assay [2] is 0.87 µM; in assay [3], under 3 µM; in the assay on P3HR1 (Burkitt lymphoma) it was 4.6 µM; in assay [4], 2.8 µM; in [5], 6.7 µM; in the assay with A549 (lung cancer), 8.5 µM. The IC50 in assay [6] stood at 4.7 µM; in [7], 1 µM; with DU 145 (prostate cancer), 4.4 µM; in assay [8] it was 5 µM. The “growth inhibitory activities on human tumor cell lines, in words” value in assay [9] is “potent growth inhibitory activities”. The Suppression was 0% with anti-SRBC PFC response (5 mg/day p.o.), 99% with anti-SRBC PFC response (25 mg/day p.o.) and 100% in the assay with anti-SRBC PFC response (50 mg/day p.o.). In addition, the “PFC × 10^-3 / spleen” value with anti-SRBC PFC response (5 mg/day p.o.) was found to be 362 ± 123 PFC × 10^-3 / spleen; in the assay with anti-SRBC PFC response (25 mg/day p.o.), 4 ± 1 PFC × 10^-3 / spleen; in the assay with anti-SRBC PFC response (50 mg/day p.o.) it was 0 PFC × 10^-3 / spleen. For the same molecule, in the assay with anti-SRBC PFC response (oral), the “immunosuppressive activity compared with mizoribine, in words” value is on record as “more active than mizoribine”. Also, in the assay on anti-SRBC PFC response (oral), the “immunosuppressive activity in oral administration, in words” value is “potent activity in oral administration”.

With `NC(=O)c1ncn([C@@H]2O[C@H](CO)[C@@H](O)[C@H]2O)c1O` [Mizoribine, 4-carbamoyl-1-β-D-ribofuranosylimidazolium-5-olate, reference compound], the Suppression worked out at 0% in the assay on anti-SRBC PFC response (5 mg/day p.o.), 69% in the assay on anti-SRBC PFC response (25 mg/day p.o.) and 89% with anti-SRBC PFC response (50 mg/day p.o.). The “PFC × 10^-3 / spleen” value amounted to 496 ± 140 PFC × 10^-3 / spleen in the assay on anti-SRBC PFC response (5 mg/day p.o.), 113 ± 53 PFC × 10^-3 / spleen in the assay with anti-SRBC PFC response (25 mg/day p.o.) and 39 ± 43 PFC × 10^-3 / spleen with anti-SRBC PFC response (50 mg/day p.o.). Besides, the “immunosuppressive and antitumor activities, in words” value in assay [1] was “immunosuppressive and antitumor activities”.

Source of the values: patent publication US4728729A, “Cyanoimidazole nucleoside derivatives” (Sumitomo Pharmaceuticals Co., Ltd., priority 1984, dated 1988).
